From article PMC7683729, “Altered conformational sampling along an evolutionary trajectory changes the catalytic activity of an enzyme” (Nature Communications, 2020)

Legend:
AncCDT-5 = test system: T1, AncCDT-5; test: end-point spectrophotometric phenylpyruvate formation ([…] nm); type: biochemical; details: equal volumes of protein in 20 mM Na2HPO4, 150 mM NaCl pH 7.4 and prephenate in 50 mM Na2HPO4 pH 8.0; room temperature (20–25 °C)
T1 construct: ancestral protein ending at Lys235; pDOTS7 vector, His6-tagged, expressed in E. coli delta-pheA; IMAC and SEC; predominantly monomeric

[1] = target: the molecule itself; test: SEC-MALS; 100 μL of each protein loaded at 10 mg mL^-1 on Superdex 200 10/300 GL; 20 mM Na2HPO4, 150 mM NaCl, pH 7.4; 0.5 mL min^-1; single experiment (n = 1)

Molecule	Km (AncCDT-5) [µM]	stoichiometry N [1]
O=C(O)C(=O)CC1(C(=O)O)C=CC(O)C=C1 (centres unmarked) [prephenate]	277 ± 4	
cyclohexadienyl dehydratase from Pseudomonas aeruginosa (PaCDT) (enzyme, UniProt Q01269 26-268, looked up, cyclohexadienyl dehydratase, Pseudomonas aeruginosa, UniProt Q01269 residues 26-268; PDB 5HPQ and 6BQE number - 11); source: E. coli K-12 ΔpheA (pDOTS7), IMAC-purified; not shown: His6, N-terminal, kept) QESRLDRILESGVLRVATTGDYKPFSYRTEEGGYAGFDVDMAQRLAESLGAKLVVVPTSWPNLMRDFADDRFDIAMSGISINLERQRQAYFSIPYLRDGKTPITLCSEEARFQTLEQIDQPGVTAIVNPGGTNEKFARANLKKARILVHPDNVTIFQQIVDGKADLMMTDAIEARLQSRLHPELCAVHPQQPFDFAEKAYLLPRDEAFKRYVDQWLHIAEQSGLLRQRMEHWLEYRWPTAHGK		3
